Consider one compound from patent US20250051300A1, “GRAM-NEGATIVE SPECIFIC ANTIBIOTICS SPARING EFFECT ON GUT MICROBIOME” (THE BOARD OF TRUSTEES OF THE UNIVERSITY OF ILLINOIS, priority 2021, published 2025).

Values after ≈ are worked out from the molar mass of the structure shown. Where two headings read alike, the source gives them in different places.

Holding throughout (assay): MIC, micro-dilution broth method (CLSI)
What all share (type): cell-based
In general terms: Dilution methods test growth across graded concentrations, often in twofold steps.

The test system of one experiment is Klebsiella pneumoniae. Particulars: Klebsiella pneumoniae, read-out: MIC.
The next experiment concerns Escherichia coli. Particulars: Escherichia coli.
The next experiment has as its system Enterobacter cloacae. Particulars: Enterobacter cloacae, read-out: MIC.

Turning to `Cc1cc(-c2nc(C(C)(C)C)[nH]c2-c2ccc3c(c2)OCCO3)ccn1` [Compound 1, 4-(2-(tert-butyl)-5-(2,3-dihydrobenzo[b][1,4]dioxin-6-yl)-1H-imidazol-4-yl)-2-methylpyridine], the MIC (commonly the least concentration at which growth counts as inhibited) with Klebsiella pneumoniae (ATCC27736, K. pneumoniae ATCC 27736) is 16 µg/mL (≈ 45.8 µM); in the experiment with Klebsiella pneumoniae (ATCCBAA1705, K. pneumoniae ATCC BAA-1705), greater than 128 µg/mL; with Klebsiella pneumoniae (K. pneumoniae AR-0040), 32 µg/mL (≈ 91.6 µM); in the experiment on Escherichia coli (ATCC25922, E. coli ATCC 25922, read-out: MIC) it was 8 µg/mL (≈ 22.9 µM); with Escherichia coli (E. coli AR-0549, read-out: MIC) it was 16 µg/mL (≈ 45.8 µM); against Escherichia coli (E. coli ΔrfaC JW3596 (permeability mutant)) it was 0.25 µg/mL (≈ 0.715 µM). In addition, the MIC in the experiment on Escherichia coli (E. coli ΔtolC JW5503 (efflux-deficient)) is 0.03 µg/mL (≈ 0.0859 µM); in the experiment with Enterobacter cloacae (ATCC29893, E. cloacae ATCC 29893) it was greater than 128 µg/mL; in the experiment with Enterobacter cloacae (ATCCBAA2468, E. cloacae ATCC BAA-2468), 32 µg/mL (≈ 91.6 µM); in the experiment on Enterobacter cloacae (E. cloacae AR-0163), 64 µg/mL (≈ 183 µM).
